Details: Liquid, Bellows volumetry

CCCCCCCC[n+]1ccn(C)c1.F[P-](F)(F)(F)(F)F [1-octyl-3-methylimidazolium hexafluorophosphate]
mass density [kg/m3]
Details	392.8 K	413 K	432.7 K	452.5 K	472.3 K
10000 kPa	–	1157	1144	1130	1116
20000 kPa	–	1165	1152	1138	1125
30000 kPa	–	1172	1159	1146	1133
40000 kPa	–	1179	1166	1153	1141
50000 kPa	–	1185	1173	1160	1148
60000 kPa	–	1191	1179	1167	1155
70000 kPa	–	1197	1185	1173	1162
80000 kPa	–	1203	1191	1179	1168
90000 kPa	1220	1208	1197	1185	1174
100000 kPa	1225	1213	1202	1191	1180
110000 kPa	1230	1218	1207	1196	1185
120000 kPa	1235	1223	1212	1201	1191
130000 kPa	1239	1228	1217	1206	1196
140000 kPa	1243	1232	1222	1211	1201
150000 kPa	1248	1237	1226	1216	1205
160000 kPa	1252	1241	1231	1220	1210
170000 kPa	1256	1245	1235	1225	1215
180000 kPa	1260	1249	1239	1229	1219
190000 kPa	1264	1253	1243	1233	1223
200000 kPa	1268	1257	1247	1237	1228
